In PMC11237753, “Discovery of α-(1→6)-linked mannan structures resembling yeast N-glycan outer chains in Aspergillus fumigatus mycelium” (mSphere, 2024):

Legend:
Mnn2 (AfMnn2) = target: T1, Mnn2 (AfMnn2) (Aspergillus fumigatus, UniProt B0YD06); assay: reverse-phase HPLC of products; format: biochemical; details: acceptor 1.5 mM; 10 mM GDP-Man, 0.5 mM MnCl2, pH 6.8, 30 °C, 16 h
T1 construct: gene AFUB_093840; N-terminal 6xHis, transmembrane residues 1-30 removed (31-493), expressed in E. coli SHuffle T7 Express, about 53 kDa
T1 sequence (B0YD06 31-493): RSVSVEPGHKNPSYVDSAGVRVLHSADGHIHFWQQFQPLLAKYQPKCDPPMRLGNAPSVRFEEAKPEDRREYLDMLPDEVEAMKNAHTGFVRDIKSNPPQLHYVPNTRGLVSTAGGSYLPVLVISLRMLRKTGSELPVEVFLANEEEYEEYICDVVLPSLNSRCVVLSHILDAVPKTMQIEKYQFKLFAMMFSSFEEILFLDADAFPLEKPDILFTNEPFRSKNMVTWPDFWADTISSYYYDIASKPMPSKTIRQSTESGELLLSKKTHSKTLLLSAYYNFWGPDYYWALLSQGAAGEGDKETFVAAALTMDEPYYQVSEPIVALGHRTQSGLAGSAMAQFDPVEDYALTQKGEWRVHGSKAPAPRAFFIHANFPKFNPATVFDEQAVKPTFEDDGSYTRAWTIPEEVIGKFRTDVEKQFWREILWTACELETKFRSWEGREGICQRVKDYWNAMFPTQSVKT

Mnn5 (AfMnn5) = target: T2, Mnn5 (AfMnn5) (Aspergillus fumigatus, UniProt B0Y1T7); assay: reverse-phase HPLC of products; format: biochemical; details: acceptor 1.5 mM; 10 mM GDP-Man, 0.5 mM MnCl2, pH 6.8, 30 °C, 16 h
T2 construct: gene AFUB_060800; N-terminal 6xHis, transmembrane residues 1-29 removed (30-492), expressed in E. coli SHuffle T7 Express, about 52 kDa
T2 sequence (B0Y1T7 30-492): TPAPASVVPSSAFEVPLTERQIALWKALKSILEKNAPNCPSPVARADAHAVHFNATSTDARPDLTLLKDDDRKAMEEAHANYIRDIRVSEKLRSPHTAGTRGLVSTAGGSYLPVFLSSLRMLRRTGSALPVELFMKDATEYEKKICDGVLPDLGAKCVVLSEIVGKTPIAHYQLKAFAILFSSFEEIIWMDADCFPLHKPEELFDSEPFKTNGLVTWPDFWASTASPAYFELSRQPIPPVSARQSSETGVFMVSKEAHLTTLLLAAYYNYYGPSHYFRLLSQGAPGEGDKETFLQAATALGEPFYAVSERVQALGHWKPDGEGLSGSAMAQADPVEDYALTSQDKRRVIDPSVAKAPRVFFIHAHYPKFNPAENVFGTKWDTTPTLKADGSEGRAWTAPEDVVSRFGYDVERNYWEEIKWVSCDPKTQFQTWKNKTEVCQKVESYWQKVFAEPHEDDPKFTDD

O=[N+]([O-])c1ccc(O[C@H]2O[C@H](CO)[C@@H](O)[C@H](O)[C@@H]2O)cc1 [p-nitrophenyl α-D-mannopyranoside]
reverse-phase HPLC of products (Mnn2 (AfMnn2)): fractions containing Mnn2 or Mnn5 revealed new products | reverse-phase HPLC of products (Mnn5 (AfMnn5)): fractions containing Mnn2 or Mnn5 revealed new products
